Key:
Assay type in all cases: functional
Design in all cases: scale not given: the % may be the effect or the level left
[1] = system: Puccinia recondita; assay: Fungicidal activity against Puccinia recondita infected wheat assessed as reduction in wheat leaf rust disease at 500 mg/l applied for 1 day prior to infection relative to untreated control
[2] = system: Phytophthora infestans; assay: Fungicidal activity against Phytophthora infestans infected tomato assessed as reduction in tomato late blight disease at 500 mg/l applied for 1 day prior to infection relative to untreated control
[3] = system: Botrytis cinerea; assay: Fungicidal activity against Botryotinia fuckeliana infected cucumber assessed as reduction in cucumber gray mold disease at 500 mg/l applied for 1 day prior to infection relative to untreated control
[4] = system: Blumeria graminis; assay: Fungicidal activity against Blumeria graminis infected barley assessed as reduction in powdery mildew disease at 1000 mg/l applied for 1 day prior to infection relative to untreated control
[5] = system: Botrytis cinerea; assay: Fungicidal activity against Botryotinia fuckeliana infected cucumber assessed as reduction in cucumber gray mold disease at 1000 mg/l applied for 1 day prior to infection relative to untreated control
[6] = system: Phytophthora infestans; assay: Fungicidal activity against Phytophthora infestans infected tomato assessed as reduction in tomato late blight disease at 1000 mg/l applied for 1 day prior to infection relative to untreated control
[7] = system: Puccinia recondita; assay: Fungicidal activity against Puccinia recondita infected wheat assessed as reduction in wheat leaf rust disease at 1000 mg/l applied for 1 day prior to infection relative to untreated control
[8] = system: Pyricularia grisea; assay: Fungicidal activity against Magnaporthe grisea infected rice assessed as reduction in rice blast disease at 1000 mg/l applied for 1 day prior to infection relative to untreated control
[9] = system: Rhizoctonia solani; assay: Fungicidal activity against Rhizoctonia solani infected rice assessed as reduction in rice sheath blight disease at 500 mg/l applied for 1 day prior to infection relative to untreated control
[10] = system: Rhizoctonia solani; assay: Fungicidal activity against Rhizoctonia solani infected rice assessed as reduction in rice sheath blight disease at 1000 mg/l applied for 1 day prior to infection relative to untreated control
[11] = system: Pyricularia grisea; assay: Fungicidal activity against Magnaporthe grisea infected rice assessed as reduction in rice blast disease at 500 mg/l applied for 1 day prior to infection relative to untreated control
[12] = system: Blumeria graminis; assay: Fungicidal activity against Blumeria graminis infected barley assessed as reduction in powdery mildew disease at 500 mg/l applied for 1 day prior to infection relative to untreated control
[13] = system: Phytophthora infestans; assay: Fungicidal activity against Phytophthora infestans infected tomato assessed as reduction in tomato late blight disease at 50 mg/l applied for 1 day prior to infection relative to untreated control
[14] = system: Phytophthora infestans; assay: Fungicidal activity against Phytophthora infestans infected tomato assessed as reduction in tomato late blight disease at 250 mg/l applied for 1 day prior to infection relative to untreated control
[15] = system: Blumeria graminis; assay: Fungicidal activity against Blumeria graminis infected barley assessed as reduction in powdery mildew disease at 250 mg/l applied for 1 day prior to infection relative to untreated control
[16] = system: Botrytis cinerea; assay: Fungicidal activity against Botryotinia fuckeliana infected cucumber assessed as reduction in cucumber gray mold disease at 250 mg/l applied for 1 day prior to infection relative to untreated control
[17] = system: Rhizoctonia solani; assay: Fungicidal activity against Rhizoctonia solani infected rice assessed as reduction in rice sheath blight disease at 250 mg/l applied for 1 day prior to infection relative to untreated control
[18] = system: Pyricularia grisea; assay: Fungicidal activity against Magnaporthe grise infected rice assessed as reduction in rice blast disease at 250 mg/l applied for 1 day prior to infection relative to untreated control
[19] = system: Puccinia recondita; assay: Fungicidal activity against Puccinia recondita infected wheat assessed as reduction in wheat leaf rust disease at 250 mg/l applied for 1 day prior to infection relative to untreated control
[20] = system: Botrytis cinerea; assay: Fungicidal activity against Botryotinia fuckeliana infected cucumber assessed as reduction in cucumber gray mold disease at 50 mg/l applied for 1 day prior to infection relative to untreated control

## O=C(CCCC/C=C/c1ccc2c(c1)OCO2)N1CCCCC1 [PIPERETTINE]
[1]
  Activity: 0%
[2]
  Activity: 0%
[3]
  Activity: 0%
[4]
  Activity: 60%
[5]
  Activity: 0%
[6]
  Activity: 0%
[7]
  Activity: 0%
[8]
  Activity: 0%
[9]
  Activity: 0%
[10]
  Activity: 0%
[11]
  Activity: 0%
[12]
  Activity: 40%

## COc1cc(/C=C/C(=O)N2CCC=CC2=O)cc(OC)c1OC [PIPLARTINE]
[1]
  Activity: 0%
[2]
  Activity: 0%
[3]
  Activity: 0%
[4]
  Activity: 0%
[5]
  Activity: 0%
[6]
  Activity: 0%
[7]
  Activity: 0%
[8]
  Activity: 10%
[9]
  Activity: 0%
[10]
  Activity: 0%
[11]
  Activity: 0%
[12]
  Activity: 0%

## O=C(/C=C/C=C/c1ccc2c(c1)OCO2)N1CCCCC1 [PIPERINE]
[1]
  Activity: 0%
[2]
  Activity: 0%
[3]
  Activity: 0%
[4]
  Activity: 0%
[5]
  Activity: 0%
[6]
  Activity: 0%
[7]
  Activity: 0%
[8]
  Activity: 0%
[9]
  Activity: 0%
[10]
  Activity: 0%
[11]
  Activity: 0%
[12]
  Activity: 0%

## C=CCc1ccc(O)c(OC)c1 [EUGENOL]
[1]
  Activity: 0%
[2]
  Activity: 0%
[3]
  Activity: 0%
[4]
  Activity: 5%
[5]
  Activity: 0%
[6]
  Activity: 0%
[7]
  Activity: 0%
[8]
  Activity: 0%
[9]
  Activity: 0%
[10]
  Activity: 0%
[11]
  Activity: 0%
[12]
  Activity: 0%

## N#Cc1c(Cl)c(Cl)c(Cl)c(C#N)c1Cl [CHLOROTHALONIL]
[13]
  Activity: 95%

## O=C(/C=C/CCCC/C=C/c1ccc2c(c1)OCO2)N1CCCCC1 [PIPERNONALINE]
[1]
  Activity: 91%
[2]
  Activity: 80%
[3]
  Activity: 0%
[14]
  Activity: 55%
[4]
  Activity: 0%
[15]
  Activity: 0%
[5]
  Activity: 0%
[16]
  Activity: 0%
[6]
  Activity: 91%
[7]
  Activity: 100%
[8]
  Activity: 71%
[17]
  Activity: 0%
[18]
  Activity: 26%
[19]
  Activity: 80%
[9]
  Activity: 0%
[10]
  Activity: 35%
[11]
  Activity: 51%
[12]
  Activity: 0%

## CN(C)S(=O)(=O)N(SC(F)(Cl)Cl)c1ccccc1 [DICHLOFLUANID]
[20]
  Activity: 92%
